Here are results for three substances from paper PMC8274934, “FisB relies on homo-oligomerization and lipid binding to catalyze membrane fission in bacteria” (PLoS Biology, 2021).

Positions count from the first letter of the chain named.

Assay [1] has as its target T1, iFluor555-FisB ECD (Bacillus subtilis, UniProt O32131, G123C).
T1 construct: iFluor555-maleimide on G123C; forms soluble oligomers
T1 sequence (O32131 39-254 G123C limits assumed): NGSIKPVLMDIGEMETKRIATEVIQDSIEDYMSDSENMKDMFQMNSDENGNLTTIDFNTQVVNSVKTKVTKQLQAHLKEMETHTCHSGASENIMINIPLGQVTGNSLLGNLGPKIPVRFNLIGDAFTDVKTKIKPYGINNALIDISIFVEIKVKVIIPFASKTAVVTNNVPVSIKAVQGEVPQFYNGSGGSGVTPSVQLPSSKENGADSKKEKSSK
The assay is described as follows: liposome co-flotation, fluorescence of gel band. Type of assay: binding. As to conditions: apparent, in total lipid concentration, 55% PC, 100 nM labelled protein, room temperature, 1 h.

The target of assay [2] is T2, iFluor555-FisB ECD (Bacillus subtilis, UniProt O32131, G123C/K168D/K170E).
T2 construct: iFluor555-maleimide on G123C; forms soluble oligomers
T2 sequence (O32131 39-254 G123C/K168D/K170E limits assumed): T1 sequence (O32131 39-254 G123C limits assumed) with K130D, K132E
Description: liposome co-flotation, fluorescence of gel band. Particulars: apparent; in total lipid concentration; liposomes 45 mole % CL, 55% PC; 100 nM labelled protein; room temperature, 1 h; read-out: KdKK. Type of assay: binding.

The target of assay [3] is His6-FisB ECD (recombinant soluble extracytoplasmic domain of fission protein B, wild type) (B. subtilis). Description: negative-stain electron microscopy; high molecular weight SEC fractions on carbon-coated grids, 2% uranyl acetate.

Take phosphatidylglycerol [PG]: at iFluor555-FisB ECD [1] (liposomes 45 mole % PG), the Kd was 3.6 µM. Turning to cardiolipin [CL], the Kd on iFluor555-FisB ECD [1] (liposomes 45 mole % CL) is 1 µM; on iFluor555-FisB ECD [2] it was 9.1 µM. Regarding “His6-FisB ECD (recombinant soluble extracytoplasmic domain of fission protein B, wild type) (domain or fragment)”, the stoichiometry N (in general, the number of molecules, sites or subunits per partner or assembly) in assay [3] came to 40 copies.
